From patent publication US4379091A, “Esters of arylpropionic acids endowed with an anti-inflammatory activity” (priority 1980, dated 1983) come the findings set out here.

Some results are limits rather than exact numbers.

Data set [1] has as its system carrageenin edema. Briefly: carrageenin edema test in the rat (percent protection). In kind it is in vivo, rat (Wistar). Conditions: for peak of activity (time) / time course of activity after the peak: carrageenin edema; for peak of activity (time) / time course of activity after the peak / Percent protection from the carrageenin edema: oral; for Percent protection from the carrageenin edema: detection after 4 hours, ibuprofen 100 mg/kg, MR-653 200 mg/kg (equimolar). The protocol:
1 percent carrageenin in saline was given, at the rate of 0.1 ml subcutaneously, into the plantar area of the left paw.
The compounds were administered 1, 3 and 6 hours respectively before the carrageenin injection; the related values were always read 4 hours after the carrageenin injection, duly assessing the percent swelling of the paw versus the value at the time 0 (carrageenin inocula). The results are expressed as percent protection considering the swelling in the control group as equal to 100.
Background: Carrageenan injected into the paw causes an acute inflammation.

Data set [2] has as its system abdominal squirmings (phenylquinone). Kind of data set: analgesic activity: abdominal squirmings induced by phenylquinone. In kind it is in vivo. Conditions: oral, 100 mg/kg (equimolar doses), one hour before; 20 minutes observation. The protocol:
Abdominal squirmings were induced by an intraperitoneal injection in saline, given at the dose of 4 mg/kg/20 ml.

Data set [3] concerns squirmings (acetylcholine). Kind of data set: acetylcholine test: squirmings induced by acetylcholine. In kind it is in vivo, mouse. The following applies: oral, one hour before acetylcholine, equimolar doses; 4 minutes observation. Here is the method:
Squirmings were induced by an intraperitoneal injection of acetylcholine ([…]; 0.5 ml per mouse); both compounds were given orally one hour before the administration of acetylcholine at the dose of 10 mg/kg, in equimolar doses. […] The results reported below were obtained in comparison with the control group: […]

Another data set relates to gastric mucosa. Briefly: gastric injuring effects. It counts as in vivo, Wistar rats. Here is the method:
The compounds were given intraperitoneally at the equimolar dose of 500 mg/kg. The animals were killed 5 hours after the treatment in order to assess the conditions of the gastric mucosa, and the possible presence of bleedings and ulcers.

Data set [4] can be described thus: plasma kinetics of ibuprofen and MR-653 in the male rat. The text has this: The investigational drugs were given by oral gavage, suspended in 0.5 percent gum arabic; an analogous suspension was used in the case of the intraperitoneal administration.
The subject of data set [5] is carrageenin edema. Briefly: carrageenin edema test in the rat (percent protection). It counts as in vivo, rat (Wistar). Conditions: oral, ibuprofen 100 mg/kg, MR-653 200 mg/kg (equimolar).
The nature of data set [6]: acute toxicity, oral LD 50 in the mouse. It counts as in vivo. Conditions: in vivo; mouse, oral.
The next data set deals with mouse. Kind of data set: acute toxicity, oral LD 50 in the mouse. It counts as in vivo. Conditions: versus the corresponding acid (ibuprofen for MR-653).
The next data set can be described thus: solubility. In kind it is physicochemical.
[7] abbreviates: intraperitoneal, equimolar dose of 500 mg/kg, 5 hours after treatment.

One may read the AUC as concentration integrated over time. Lower therefore signals less exposure. Take `CC(C)Cc1ccc(C(C)C(=O)O)cc1` (stereo not drawn) [Ibuprofen, 2-(4-isobutyl-phenyl) propionic acid]: in the data set on carrageenin edema [1] (equimolar doses), the “peak of activity (time)” value is on record as “around the first hour”; the “time course of activity after the peak” value is “rapid and progressive decrease even starting from the second hour”. In the data set on carrageenin edema [1], the “Percent protection from the carrageenin edema” value (shortened to “Percent protection”) is reported as 24%. In addition, the “protection versus the control group (phenylquinone squirming)” value in data set [2] is recorded as 20%. Besides, the “protection versus control group (acetylcholine squirming)” value in [3] came to 50%. The “incidence of punctiform ulcer” value with gastric mucosa (setting [7]) amounted to 14%. In addition, the “condition of stomach / peritoneum” value with gastric mucosa (rat, in vivo, ip, 500 mg/kg) was “almost normal mucosa with a fair quantity of a yellowish foamy secretion”. Further, the “time of peak of the plasma levels of ibuprofen” value in data set [4] (plasma kinetics, oral) is “at the first hour”. In [4] (rat, in vivo, ip, 58.8 mg/kg), this molecule registered an AUC at 7 h of roughly 325 µg·h/mL, a concentration at 0.5 h of 215000 ± 33400 ng/mL, a concentration at 1 h of 105000 ± 12400 ng/mL and a concentration at 2 h of 18300 ± 11000 ng/mL. This molecule also showed a concentration at 7 h in data set [4] (rat, in vivo, ip, 58.8 mg/kg) of 6200 ± 2400 ng/mL. Further, in [4] (rat, in vivo, po, 58.8 mg/kg), the AUC at 7 h was roughly 190 µg·h/mL, the concentration at 1 h was determined as 71700 ± 23600 ng/mL, the concentration at 2 h stood at 32200 ± 7700 ng/mL and the concentration at 5 h turned out to be 12100 ± 22000 ng/mL. The molecule also yielded a concentration at 7 h in data set [4] (rat, in vivo, po, 58.8 mg/kg) of 9100 ± 1500 ng/mL. Besides, the “Percent protection” value in the data set with carrageenin edema [5] (detection after 1 hour) came to 60%. Moreover, the “Percent protection” value in the data set on carrageenin edema [5] (detection after 2 hours) is 44%. In addition, the “Percent protection” value in the data set on carrageenin edema [5] (detection after 3 hours) amounted to 28%. For the same molecule, the “Percent protection” value in the data set on carrageenin edema [5] (detection after 6 hours) was found to be 20%.
As a reminder, the LD50 is the dose at which mortality reaches 50%. A low value points to a more toxic substance. For the molecule `CC(C)Cc1ccc(C(C)C(=O)OCCOCCOCCOCCO)cc1` (stereo not drawn) [MR-653, Monoester of 2-(4-isobutyl-phenyl)propionic acid with tetraethylene glycol], in the data set on carrageenin edema [1] (equimolar doses), the “peak of activity (time)” value was “around the first hour”. In the data set on carrageenin edema [1] (equimolar doses), the “time course of activity after the peak” value is listed as “markedly slower”. Also, the “Percent protection” value was 44% in the data set on carrageenin edema [1]; 64% with carrageenin edema [5] (detection after 1 hour); 59% in the data set on carrageenin edema [5] (detection after 2 hours); 47% in the data set with carrageenin edema [5] (detection after 3 hours); 34% with carrageenin edema [5] (detection after 6 hours). Moreover, the “anti-inflammatory activity higher than that of ibuprofen until the 6th hour” value with carrageenin edema [1] (equimolar doses, versus ibuprofen) amounted to 48%. In data set [6], this molecule returned an LD50 greater than 2000 mg/kg. Also, in the data set with mouse, the “toxicity compared with the corresponding acid” value was “practically unchanged values of toxicity and gastric injuring effects”. Also, the “protection versus the control group (phenylquinone squirming)” value in [2] is 20%. Also, the “protection versus control group (acetylcholine squirming)” value in data set [3] came to 48%. Also, in the data set with gastric mucosa (setting [7]), the “condition of stomach / peritoneum” value is “mildly hyperemic peritoneal exudate”. The “incidence of punctiform ulcer” value in the data set on gastric mucosa (setting [7]) is on record as 16%. The “gastric injuring effects compared with the corresponding acid” value with gastric mucosa (versus the corresponding acid (ibuprofen for MR-653)) is “practically unchanged values of toxicity and gastric injuring effects”. Moreover, the “solubility in organic solvents” value in “solubility” (methanol, diethyl ether, acetone and chloroform) is “soluble on the other hand in methanol, diethyl ether, acetone and chloroform”. Also, the solubility in water result in “solubility” (water) is “practically insoluble in water”.
